Experimental data as given in PMC9551036, “A selective and orally bioavailable VHL-recruiting PROTAC achieves SMARCA2 degradation in vivo” (Nature Communications, 2022).
Several values for one entry are separate records, joined by “and”; a condition that tells them apart may be missing. Identical values can stand only once.

Tested on: panel of cell lines (A549, HCC-364, HCC-515, HCC4006, KYSE-30, LU99, LXFA_629L, LXFA_923L, LXFL_529L, LXFL_1121L, MP38, NCI-H23, NCI-H1355, OV-90, SK-MEL-5 …)
Experiment: Cell viability assay (CellTiter Glo) in a panel of cell lines;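 as to % Viability: percent of DMSO-treated control cells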
Assay type: cell-based, human
Procedure: 500–2000 cells were seeded in white, clear bottom 96-well plates (Corning or Perkin Elmer) in 180–200 µl medium per well. The next day, compounds were added using a digital dispenser and a T0 sample was measured for reference. Cells were incubated for 144–192 h, and viability (luminescence) was measured using CellTiter Glo or CellTiter Glo 2.0 (Promega) according to manufacturer’s instructions after equilibrating cells and reagents at room temperature and 10–20 min incubation time while shaking.

Structure (SMILES): Cc1ncsc1-c1ccc(C(CCC(C)CCN2CCC(c3ccc4c(c3)n(C3CCCC3)c3nc(=O)c5c(Br)cccc5n43)CC2)NC(=O)C2CC(O)CN2C(=O)C(NC(=O)C2(F)CC2)C(C)(C)C)cc1 (centres unmarked) [ACBI2]
- HillSlope (viability) (A549): -0.487
- % Viability (A549, log10 conc -7 mol/l): 47.919% and 42.1211%
- % Viability (A549, log10 conc -7.50031 mol/l): 60.413% and 52.9594%
- % Viability (A549, log10 conc -8 mol/l): 70.4787% and 68.1265%
- % Viability (A549, log10 conc -8.50031 mol/l): 100.959% and 102.653%
- HillSlope (viability) (HCC4006): -2.51
- % Viability (HCC4006, log10 conc -7.10735 mol/l): 106.752% and 106.118%
- % Viability (HCC4006, log10 conc -8.31158 mol/l): 118.541% and 111.324%
- HillSlope (viability) (HCC-364): -2.992
- % Viability (HCC-364, log10 conc -7.10735 mol/l): 39.6895% and 65.8316%
- % Viability (HCC-364, log10 conc -8.31158 mol/l): 101.18% and 100.543%
- HillSlope (viability) (HCC-515): -0.931
- % Viability (HCC-515, log10 conc -7 mol/l): 21.3218% and 22.1794%
- % Viability (HCC-515, log10 conc -7.50031 mol/l): 21.1243% and 26.9825%
- % Viability (HCC-515, log10 conc -8 mol/l): 34.5235% and 34.7052%
- % Viability (HCC-515, log10 conc -8.50031 mol/l): 51.5226% and 47.9218%
- HillSlope (viability) (KYSE-30): -1.122
- % Viability (KYSE-30, log10 conc -7.10735 mol/l): 99.6818% and 96.2107%
- % Viability (KYSE-30, log10 conc -8.31158 mol/l): 107.107% and 103.099%
- HillSlope (viability) (LU99): -1.519
- % Viability (LU99, log10 conc -7.10735 mol/l): 81.59% and 77.7555%
- % Viability (LU99, log10 conc -8.31158 mol/l): 123.387% and 114.143%
- HillSlope (viability) (LXFA_629L): -0.7355
- % Viability (LXFA_629L, log10 conc -7 mol/l): 28.2712% and 27.4037%
- % Viability (LXFA_629L, log10 conc -7.50031 mol/l): 41.2713% and 34.5184%
- % Viability (LXFA_629L, log10 conc -8 mol/l): 57.9035% and 54.0045%
- % Viability (LXFA_629L, log10 conc -8.50031 mol/l): 89.2294% and 82.1746%
- HillSlope (viability) (LXFA_923L): -0.4788
- % Viability (LXFA_923L, log10 conc -7.50031 mol/l): 31.729% and 41.6954%
- % Viability (LXFA_923L, log10 conc -8 mol/l): 41.6215% and 47.8343%
- % Viability (LXFA_923L, log10 conc -8.50031 mol/l): 63.1043% and 68.2132%
- HillSlope (viability) (LXFL_529L): -0.4813
- % Viability (LXFL_529L, log10 conc -7.50031 mol/l): 17.7092% and 18.3663%
- % Viability (LXFL_529L, log10 conc -8 mol/l): 23.2341% and 22.4794%
- % Viability (LXFL_529L, log10 conc -8.50031 mol/l): 25.5623% and 26.9316%
- HillSlope (viability) (LXFL_1121L): -1.483
- % Viability (LXFL_1121L, log10 conc -7.50031 mol/l): 92.1257% and 100.242%
- % Viability (LXFL_1121L, log10 conc -8 mol/l): 96.5968% and 112.339%
- % Viability (LXFL_1121L, log10 conc -8.50031 mol/l): 103.275% and 116.726%
- HillSlope (viability) (MP38): -1.603
- % Viability (MP38, log10 conc -7.50031 mol/l): 10.4737% and 10.5264%
- % Viability (MP38, log10 conc -8 mol/l): 48.5822% and 44.1126%
- % Viability (MP38, log10 conc -8.50031 mol/l): 84.8854% and 80.6261%
- HillSlope (viability) (NCI-H23): -0.9596
- % Viability (NCI-H23, log10 conc -7.10735 mol/l): 77.4555% and 94.2831%
- % Viability (NCI-H23, log10 conc -8.31158 mol/l): 93.614% and 103.354%
- HillSlope (viability) (NCI-H1355): -1.475
